Source: US12042481B2, “Use of (1R,5S)-(+)-1-(naphthalen-2-yl)-3-azabicyclo[3.1.0]hexane in the treatment of conditions affected by monoamine neurotransmitters” (priority 2011, dated 2024)

Tests used:
[1] = tested on: monoamine uptake transporters; test: Microdialysis in rat striatum (extracellular DA, HVA); format: in vivo
Protocol: To evaluate the effect of (1R,5S)-(+)-1-(naphthalen-2-yl)-3-azabicyclo[3.1.0]hexane on monoamine uptake transporters in vivo, microdialysis studies were performed in rat brain regions.
Microdialysis studies were conducted using male Wistar rats (250-300 g) bred at the Institute of Pharmacology, the Polish Academy of Sciences, Krakow, Poland. The rats (250-300 g) were housed on a 12 h/12 h light/dark cycle at a constant temperature and humidity, and were provided with food and water ad libitum. The microdialysis procedure has been previously described (Popik et al., 2006). Briefly, the rats were anaesthetized with ketamine (75 mg/kg IM) and xylazine (10 mg/kg IM), placed in a stereotaxic apparatus (David Kopf Instruments, Tujunga, CA, USA) with their skulls exposed. Small holes were drilled in the skull for insertion of the vertical microdialysis probes into the prefrontal cortex and striatum, respectively using the following coordinates: 2.9 mm anterior from the bregma, 0.8 mm lateral from the sagittal suture and −4.5 ventral from the dura surface (prefrontal cortex); 1.8 mm anterior from the bregma, 2.7 mm lateral from the sagittal suture and −7.0 mm ventral from the dura surface (striatum) (Paxinos and Watson, 1998). Microdialysis probes were constructed by inserting two fused silica tubes (30 and 35 mm long, 150 μm o.d.; Polymicro Technologies Inc., Phoenix, AZ, USA) into a microdialysis fiber (220 μm o.d.; AN69, Hospal, Bologna, Italy). The tube assembly was placed in a stainless steel cannula (22 G, 10 mm) forming the shaft of the probe. Portions of the inlet and outlet tubes were individually placed inside polyethylene PE-10 tubing and were glued for protection. The free end of the dialysis fibre was sealed, and 3 mm of the exposed length used for dialysis in prefrontal cortex and 4 mm for striatum. One day after the surgery and probe implantation, the inlet of the dialysis probes was connected to a syringe pump (BAS, IN, USA) which delivered an artificial cerebrospinal fluid (aCSF) composed of [in mM]: NaCl 145, KCl 2.7, MgCl2 1.0, CaCl2 1.2; pH=7.4 at a flow rate of 1.5 μl/min. After a two hour rinsing period to stabilize the extracellular level of neurotransmitters, 3-4 baseline samples were collected in 20 minute sampling periods. Next, (1R,5S)-(+)-1-(naphthalen-2-yl)-3-azabicyclo[3.1.0]hexane (dissolved in 0.9% saline solution) at doses of 10 or 20 mg/kg intraperioneally (i.p.) was administered to the animals at 4 ml/kg and consequent dialysate fractions were collected every 20 min for 3 hrs. At the end of the experiments the rats were sacrificed and their brains were histologically examined to validate the correct probe placement
Dopamine, and serotonin (5-HT) were analysed by HPLC with electrochemical detection. […] The flow rate was 0.5 ml/min, and the applied potential of a 3 mm glassy carbon electrode was +600 mV with a sensitivity of 2 nA/V. Norepinephrine was measured using HPLC system equipped with a P580 pump (Dionex, CA, USA) connected to a BAS injection valve with a 10 μI injection loop and a BDS-Hypersil analytical column (2.0×100 mm, a 3 μm, Thermo Electron Corp., UK). […] NE in the dialysates was detected with a BAS UniJet radial flow detector cell coupled to a LC-4B amperometric detector (BAS, IN, USA). […]

[2] = biological target: T1, recombinant human NE transporter (Homo sapiens, UniProt P23975); test: Inhibition of [3H]norepinephrine uptake in MDCK cells transfected with the NE uptake transporter; format: cell-based
T1 construct: host or cells: MDCK
T1 sequence (P23975 whole entry): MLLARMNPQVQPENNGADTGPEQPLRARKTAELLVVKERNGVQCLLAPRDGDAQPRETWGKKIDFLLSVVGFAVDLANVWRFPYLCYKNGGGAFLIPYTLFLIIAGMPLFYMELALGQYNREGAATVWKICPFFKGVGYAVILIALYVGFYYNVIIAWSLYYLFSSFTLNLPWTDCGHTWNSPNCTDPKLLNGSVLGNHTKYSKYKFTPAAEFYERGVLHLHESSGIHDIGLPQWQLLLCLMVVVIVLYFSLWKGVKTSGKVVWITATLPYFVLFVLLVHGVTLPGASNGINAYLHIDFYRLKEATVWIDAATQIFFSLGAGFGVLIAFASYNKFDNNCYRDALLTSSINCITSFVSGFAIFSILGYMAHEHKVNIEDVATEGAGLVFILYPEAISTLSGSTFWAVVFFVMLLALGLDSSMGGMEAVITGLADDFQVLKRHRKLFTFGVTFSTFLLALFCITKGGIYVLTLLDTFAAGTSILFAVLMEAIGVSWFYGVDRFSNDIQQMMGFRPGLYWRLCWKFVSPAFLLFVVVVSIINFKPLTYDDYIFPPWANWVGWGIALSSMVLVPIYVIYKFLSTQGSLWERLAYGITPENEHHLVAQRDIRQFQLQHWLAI
Protocol: The ability of (1R,5S)-(+)-1-(naphthalen-2-yl)-3-azabicyclo[3.1.0]hexane for inhibiting transport of norepinephrine (NE) and/or dopamine (DA) and/or serotonin (5-HT) was evaluated using cell lines (such as the HEK 293 cell line) that stably express recombinant human NE, DA, and 5-HT transporters, respectively. Techniques for stably transfecting mammalian cell lines with neurotransmitter transporters and measuring the effects of drugs on amine uptake have been described in the literature (e.g., Eshleman A J, J Pharmacol Exp Ther 289:877-885, 1999) and are well known to those skilled in the art
Monoamine uptake was determined in MDCK, CHO-K1, and HEK-293 cell lines respectively transfected with NE, DA, and 5-HT uptake transporters by MDS Pharma Services (Taipei, Taiwan 112, R. O. C.). The cells were incubated in 5 mM Tris-HCl, and 7.5 mM HEPES buffer, pH 7.1, containing 120 mM NaCl, 5.4 mM KCl, 1.2 mM CaCl2, 1.2 mM MgSO4, 5 mM D-glucose, and 1 mM Ascorbic Acid. The cellular homogenates were incubated with radioligands and various concentrations of drugs for 10 minutes at 25° C. The [^3H]-radioligands incorporated into the cells were determined according to published methods using liquid scintillation counting (Perovic and Müller 1995; Eshleman et al., 1999). […]

Question: Which “duration of effect on extracellular DA” value [1] does the source give for `c1ccc2cc([C@]34CNC[C@H]3C4)ccc2c1` [(1R,5S)-(+)-1-(naphthalen-2-yl)-3-azabicyclo[3.1.0]hexane] here?
Answer: over 3 hours

Question: And the “effect on extracellular concentrations of HVA (metabolite of DA)” value [1]?
Answer: decreased

Question: What about the “time within which extracellular DA was markedly increased” value [1] of the same molecule?
Answer: ≤ 40 min

Question: And the “peak increase of extracellular DA” value ([1]; 10 mg/kg i.p.)?
Answer: over 275 % of baseline

Question: What about the “peak increase of extracellular DA” value ([1]; 20 mg/kg i.p.) of the same molecule?
Answer: > 375 % of baseline

Question: What about the IC50 [2] of the same molecule?
Answer: 6 nM
